Values of other authors as cited in patent US20060275223A1, “Erythritol compositions for teeth and gums” (priority 2005, published 2006).

Details: erythritol comprises 20% of the diet

In the case of OC[C@@H](O)[C@@H](O)CO [erythritol], the diarrhea is given as “does not cause diarrhea”.
